Results as given in US9095138B2, “Isoxazoline insecticides” (E.I. du Pont de Nemours and Company, priority 2007, dated 2015).

How the values were obtained:
Type in all cases: in vivo
[1] = test system: western flower thrips (Frankliniella occidentalis); experiment: Test E: control of western flower thrips on Soleil bean plant, contact and/or systemic; settings: adult thrips, assessed after 6 days, replicated three times
Procedure: (§1) Test compounds were formulated using a solution containing 10% acetone, 90% water and 300 ppm X-77™ Spreader Lo-Foam Formula non-ionic surfactant containing alkylarylpolyoxyethylene, free fatty acids, glycols and isopropanol (Loveland Industries, Inc. Greeley, Colo., USA). The formulated compounds were applied in 1 mL of liquid through a SUJ2 atomizer nozzle with ⅛ JJ custom body (Spraying Systems Co. Wheaton, Ill., USA) positioned 1.27 cm (0.5 inches) above the top of each test unit. All experimental compounds in these tests were sprayed at 50 ppm, and the test was replicated three times. After spraying of the formulated test compound, each test unit was allowed to dry for 1 h and then a black, screened cap was placed on top. The test units were held for 6 days in a growth chamber at 25° C. and 70% relative humidity. Plant feeding damage was then visually assessed based on foliage consumed and a pest mortality rating was also counted and calculated for each test unit.
For evaluating control of the western flower thrips (Frankliniella occidentalis) through contact and/or systemic means, the test unit consisted of a small open container with a 5-7 day old Soleil Bean plant inside. Test compounds were formulated and sprayed as described for Test A. All experimental compounds in these tests were sprayed at 250 or 50 ppm as noted, and the test was replicated three times. After spraying, the test units were allowed to dry for 1 hour and then 22-27 adult thrips were added to each unit and then a black, screened cap was placed on top. The test units were held for 6 days at 25° C. and 45-55% relative humidity. A mortality rating was assessed along with a plant damage rating for each test unit.

[2] = test system: diamondback moth (Plutella xylostella); experiment: Test A: control of diamondback moth on radish plant, foliar spray; settings: sprayed at 50 ppm; neonate larvae on radish; assessed after 6 days; replicated three times
Source text: For evaluating control of diamondback moth (Plutella xylostella) the test unit consisted of a small open container with a 12-14-day-old radish plant inside. This was pre-infested with about 50 neonate larvae that were dispensed into the test unit via corn-cob grits using a bazooka inoculator. The larvae moved onto the test plant after being dispensed into the test unit.
as §1

[3] = test system: fall armyworm (Spodoptera frugiperda); experiment: Test B: control of fall armyworm on corn (maize) plant, foliar spray; settings: sprayed at 50 ppm; 1-day-old larvae on corn; replicated three times
Procedure: as §1
For evaluating control of fall armyworm (Spodoptera frugiperda) the test unit consisted of a small open container with a 4-5-day-old corn (maize) plant inside. This was pre-infested (using a core sampler) with 10-15 1-day-old larvae on a piece of insect diet. Test compounds were formulated and sprayed at 50 ppm as described for Test A and replicated three times. After spraying, the test units were maintained in a growth chamber and then the control efficacy was rated for each test unit as described for Test A.

In the case of O=C(NCCSCC(F)(F)F)c1ccc(C2=NOC(c3cccc(C(F)(F)F)c3)(C(F)(F)F)C2)c2ccccc12 (racemic) [Compound 22], the “control efficacy (feeding damage or mortality): very good to excellent levels” value (“control efficacy” for short) ([1]; sprayed at 50 ppm) is reported as 20% or less feeding damage or 80% or more mortality, the “control efficacy” value ([1]; sprayed at 250 ppm) is reported as 20% or less feeding damage or 80% or more mortality and the “control efficacy” value [2] is reported as 20% or less feeding damage or 80% or more mortality. For the same molecule, the “control efficacy” value [3] was 20% or less feeding damage or 80% or more mortality.

In the case of O=C(CNC(=O)c1ccc(C2=NOC(c3cc(Cl)cc(OCC(F)(F)F)c3)(C(F)(F)F)C2)c2ccccc12)NC1CC1 (stereo not shown) [Compound 85], the “control efficacy” value ([1]; sprayed at 50 ppm) is reported as 20% or less feeding damage or 80% or more mortality, the “control efficacy” value [2] is reported as 20% or less feeding damage or 80% or more mortality and the “control efficacy” value [3] is reported as 20% or less feeding damage or 80% or more mortality.

CC[C@@H](NC(=O)c1ccc(C2=NOC(c3cc(Cl)cc(C(F)(F)F)c3)(C(F)(F)F)C2)c2ccccc12)C(N)=O (stereo partly shown) [Compound 86] was tested, and the “control efficacy” value ([1]; sprayed at 50 ppm) was 20% or less feeding damage or 80% or more mortality, the “control efficacy” value [2] was 20% or less feeding damage or 80% or more mortality and the “control efficacy” value [3] was 20% or less feeding damage or 80% or more mortality.

With CC(NC(=O)c1ccc(C2=NOC(c3cc(C(F)(F)F)cc(C(F)(F)F)c3)(C(F)(F)F)C2)c2ccccc12)C(N)=O (stereo not shown) [Compound 69] the “control efficacy” value ([1]; sprayed at 50 ppm) was 20% or less feeding damage or 80% or more mortality, the “control efficacy” value [2] was 20% or less feeding damage or 80% or more mortality and the “control efficacy” value [3] was 20% or less feeding damage or 80% or more mortality.

In the case of C[C@@H](NC(=O)c1ccc(C2=NOC(c3cc(Cl)cc(Cl)c3)(C(F)(F)F)C2)c2ccccc12)C(=O)NC1CC1 (stereo partly shown) [Compound 53], the “control efficacy” value ([1]; sprayed at 50 ppm) is reported as 20% or less feeding damage or 80% or more mortality, the “control efficacy” value ([1]; sprayed at 250 ppm) is reported as 20% or less feeding damage or 80% or more mortality and the “control efficacy” value [2] is reported as 20% or less feeding damage or 80% or more mortality. For the same molecule, the “control efficacy” value [3] was 20% or less feeding damage or 80% or more mortality.

For C[C@@H](NC(=O)c1ccc(C2=NOC(c3cc(Cl)cc(C(F)(F)F)c3)(C(F)(F)F)C2)c2ccccc12)C(N)=O (stereo partly shown) [Compound 74], the “control efficacy” value ([1]; sprayed at 50 ppm) was 20% or less feeding damage or 80% or more mortality, the “control efficacy” value ([1]; sprayed at 250 ppm) was 20% or less feeding damage or 80% or more mortality and the “control efficacy” value [2] was 20% or less feeding damage or 80% or more mortality. For the same molecule, the “control efficacy” value [3] was 20% or less feeding damage or 80% or more mortality.

With C[C@@H](NC(=O)c1ccc(C2=NOC(c3cc(C(F)(F)F)cc(C(F)(F)F)c3)(C(F)(F)F)C2)c2ccccc12)C(=O)NCC1CC1 (stereo partly shown) [Compound 66] the “control efficacy” value ([1]; sprayed at 50 ppm) was 20% or less feeding damage or 80% or more mortality, the “control efficacy” value ([1]; sprayed at 250 ppm) was 20% or less feeding damage or 80% or more mortality and the “control efficacy” value [2] was 20% or less feeding damage or 80% or more mortality. For the same molecule, the “control efficacy” value [3] was 20% or less feeding damage or 80% or more mortality.

In the case of O=C(CNC(=O)c1ccc(C2=NOC(c3cc(Cl)cc(C(F)(F)F)c3)(C(F)(F)F)C2)c2ccccc12)NCC1CC1 (stereo not shown) [Compound 76], the “control efficacy” value ([1]; sprayed at 50 ppm) is reported as 20% or less feeding damage or 80% or more mortality, the “control efficacy” value ([1]; sprayed at 250 ppm) is reported as 20% or less feeding damage or 80% or more mortality and the “control efficacy” value [2] is reported as 20% or less feeding damage or 80% or more mortality. The “control efficacy” value [3] was 20% or less feeding damage or 80% or more mortality.

CS(=O)(CCNC(=O)c1ccc(C2=NOC(c3cc(Cl)cc(Cl)c3)(C(F)(F)F)C2)c2ccccc12)=NC(=O)C(F)(F)F (stereo not shown) [Compound 93] was tested, and the “control efficacy” value ([1]; sprayed at 50 ppm) was 20% or less feeding damage or 80% or more mortality, the “control efficacy” value ([1]; sprayed at 250 ppm) was 20% or less feeding damage or 80% or more mortality and the “control efficacy” value [2] was 20% or less feeding damage or 80% or more mortality. For the same molecule, the “control efficacy” value [3] was 20% or less feeding damage or 80% or more mortality.

O=C(CNC(=O)c1ccc(C2=NOC(c3cc(C(F)(F)F)cc(C(F)(F)F)c3)(C(F)(F)F)C2)c2ccccc12)NCC1CC1 (stereo not shown) [Compound 71] was tested, and the “control efficacy” value ([1]; sprayed at 50 ppm) was 20% or less feeding damage or 80% or more mortality, the “control efficacy” value [2] was 20% or less feeding damage or 80% or more mortality and the “control efficacy” value [3] was 20% or less feeding damage or 80% or more mortality.

For O=C(CNC(=O)c1ccc(C2=NOC(c3cc(Cl)cc(OC(F)(F)F)c3)(C(F)(F)F)C2)c2ccccc12)NC1CC1 (stereo not shown) [Compound 82], the “control efficacy” value ([1]; sprayed at 50 ppm) was 20% or less feeding damage or 80% or more mortality, the “control efficacy” value [2] was 20% or less feeding damage or 80% or more mortality and the “control efficacy” value [3] was 20% or less feeding damage or 80% or more mortality.

COCCNC(=O)CNC(=O)c1ccc(C2=NOC(c3cc(Cl)cc(Cl)c3)(C(F)(F)F)C2)c2ccccc12 (stereo not shown) [Compound 47] was tested, and the “control efficacy” value ([1]; sprayed at 50 ppm) was 20% or less feeding damage or 80% or more mortality, the “control efficacy” value ([1]; sprayed at 250 ppm) was 20% or less feeding damage or 80% or more mortality and the “control efficacy” value [2] was 20% or less feeding damage or 80% or more mortality. The “control efficacy” value [3] was 20% or less feeding damage or 80% or more mortality.

With CC(NC(=O)c1ccc(C2=NOC(c3cc(Cl)cc(C(F)(F)F)c3)(C(F)(F)F)C2)c2ccccc12)C(=O)NCC1CC1 (stereo not shown) [Compound 79] the “control efficacy” value ([1]; sprayed at 50 ppm) was 20% or less feeding damage or 80% or more mortality, the “control efficacy” value ([1]; sprayed at 250 ppm) was 20% or less feeding damage or 80% or more mortality and the “control efficacy” value [2] was 20% or less feeding damage or 80% or more mortality. For the same molecule, the “control efficacy” value [3] was 20% or less feeding damage or 80% or more mortality.

With CS(=N)(=O)CCNC(=O)c1ccc(C2=NOC(c3cc(Cl)cc(Cl)c3)(C(F)(F)F)C2)c2ccccc12 (stereo not shown) [Compound 94] the “control efficacy” value ([1]; sprayed at 50 ppm) was 20% or less feeding damage or 80% or more mortality, the “control efficacy” value ([1]; sprayed at 250 ppm) was 20% or less feeding damage or 80% or more mortality and the “control efficacy” value [2] was 20% or less feeding damage or 80% or more mortality. For the same molecule, the “control efficacy” value [3] was 20% or less feeding damage or 80% or more mortality.

For NC(=O)CNC(=O)c1ccc(C2=NOC(c3cc(C(F)(F)F)cc(C(F)(F)F)c3)(C(F)(F)F)C2)c2ccccc12 (stereo not shown) [Compound 70], the “control efficacy” value ([1]; sprayed at 50 ppm) was 20% or less feeding damage or 80% or more mortality, the “control efficacy” value [2] was 20% or less feeding damage or 80% or more mortality and the “control efficacy” value [3] was 20% or less feeding damage or 80% or more mortality.

With CSCCNC(=O)CNC(=O)c1ccc(C2=NOC(c3cc(Cl)c(Cl)c(Cl)c3)(C(F)(F)F)C2)c2ccccc12 (stereo not shown) [Compound 49] the “control efficacy” value ([1]; sprayed at 250 ppm) was 20% or less feeding damage or 80% or more mortality, the “control efficacy” value [2] was 20% or less feeding damage or 80% or more mortality and the “control efficacy” value [3] was 20% or less feeding damage or 80% or more mortality.

In the case of CNC(=O)[C@H]1CCCN1C(=O)c1ccc(C2=NOC(c3cc(Cl)cc(Cl)c3)(C(F)(F)F)C2)c2ccccc12 (stereo partly shown) [Compound 104], the “control efficacy” value ([1]; sprayed at 50 ppm) is reported as 20% or less feeding damage or 80% or more mortality, the “control efficacy” value ([1]; sprayed at 250 ppm) is reported as 20% or less feeding damage or 80% or more mortality and the “control efficacy” value [2] is reported as 20% or less feeding damage or 80% or more mortality. For the same molecule, the “control efficacy” value [3] was 20% or less feeding damage or 80% or more mortality.
